The target in experiment [1] is T1, glutathione-S-transferase (GST) tagged LXRbeta LBD (ligand binding domain) (Homo sapiens, UniProt P55055).
T1 construct: purchased Invitrogen pv4658.pps
T1 sequence (P55055 222-460 limits assumed): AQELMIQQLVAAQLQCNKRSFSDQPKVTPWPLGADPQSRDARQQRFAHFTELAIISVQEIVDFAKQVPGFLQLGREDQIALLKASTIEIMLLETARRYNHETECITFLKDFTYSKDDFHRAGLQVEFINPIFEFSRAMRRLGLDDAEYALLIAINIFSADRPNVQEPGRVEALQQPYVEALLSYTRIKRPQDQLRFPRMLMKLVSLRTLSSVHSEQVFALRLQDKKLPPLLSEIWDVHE
Description: LanthaScreen TR-FRET Liver X Receptor Coactivator Assay, LXR beta-LBD. The following applies: for Emax: efficacy in relation to reference dual agonist T1317, read-out: LXR beta activity at max dose (%) (Emax); for EC50: potency (Inflection Point) of co-activator recruitment, TR-FRET, read-out: LXR beta IP. The experiment is classed as biochemical. Put shortly:
(§1)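 TR-FRET read-out of coactivator recruitment: fluorescein-coactivator peptide plus Tb-anti-GST antibody added to LBD preincubated with compound; incubated at RT before reading.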
On the technique in general: TR-FRET usually uses a lanthanide donor and a delayed reading to cut background.

The target in experiment [2] is T2, glutathione-S-transferase (GST) tagged LXRalpha LBD (ligand binding domain) (Homo sapiens, UniProt Q13133).
T2 construct: purchased Invitrogen pv4655
T2 sequence (Q13133 209-447 limits assumed): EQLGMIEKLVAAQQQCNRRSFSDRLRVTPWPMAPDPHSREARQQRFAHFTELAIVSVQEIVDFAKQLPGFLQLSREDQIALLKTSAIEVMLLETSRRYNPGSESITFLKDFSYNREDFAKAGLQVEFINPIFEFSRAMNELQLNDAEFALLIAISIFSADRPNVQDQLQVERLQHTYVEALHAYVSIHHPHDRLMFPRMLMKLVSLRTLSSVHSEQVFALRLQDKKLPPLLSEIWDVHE
Description: LanthaScreen TR-FRET Liver X Receptor Coactivator Assay, LXR alpha-LBD. As to conditions: for Emax: efficacy in relation to reference dual agonist T1317, read-out: LXR alpha activity at max dose (%) (Emax); for EC50: potency (Inflection Point) of co-activator recruitment, TR-FRET, read-out: LXR alpha IP. In kind it is biochemical. In outline: as §1

In general, Emax refers to the greatest response seen or fitted, relative to the assay's reference. For `CN(C)C(=O)c1ccc(-c2ccc(N3CC4CCC(C3)N4S(=O)(=O)c3c(Cl)cccc3Cl)c(Cl)c2)cc1Cl` [Example 8-16, 3,3′-dichloro-4′-{8-[(2,6-dichlorophenyl)sulfonyl]-3,8-diazabicyclo[3.2.1]oct-3-yl}-N,N-dimethylbiphenyl-4-carboxamide], in experiment [1], the maximal effect (Emax) came out at 82% and the EC50 is 37 nM. For the same compound, in experiment [2], the maximal response (Emax) was 79% and the EC50 was found to be 569 nM.
Taken in the same sequence, the figures for `CN(C)C(=O)c1ccc(-c2cnc(N3CCN(C(=O)Cc4ccccc4)CC3)c(C#N)c2)cc1Cl` [Example 2-7] were 102%, 50 nM, 54% and 6790 nM.
With `CC(C)C(=O)C(=O)N1CCN(c2ncc(-c3cc(Cl)c(C(=O)N(C)C)c(Cl)c3)cc2C#N)CC1` [Example 7-2, 2,6-dichloro-4-{5-cyano-6-[4-(3-methyl-2-oxobutanoyl)piperazin-1-yl]pyridin-3-yl}1-N,N-dimethylbenzamide], the values for the Emax in experiment [1] and in experiment [2] were 88% and 30%, respectively. The EC50 in experiment [1] was 32 nM; in experiment [2], 2040 nM.
Regarding `CN(C)C(=O)c1ccc(-c2cnc(N3CCN(C(=O)[C@@](O)(c4ccccc4)C(F)(F)F)CC3)c(C#N)c2)cc1Cl` [Example 2-31, 2-chloro-4-(5-cyano-6-{4-[(2S)-3,3,3-trifluoro-2-hydroxy-2-phenylpropanoyl]piperazin-1-yl}pyridin-3-yl)-N,N-dimethylbenzamide], in experiment [1], the Emax was 68% and the EC50 came to 307 nM. In experiment [2], the Emax turned out to be 12% and the EC50 is 7290 nM.
Regarding `CN(C)C(=O)c1ccc(-c2cnc(N3CCN(S(=O)(=O)C4CC4)CC3)c(C#N)c2)cc1Cl` [Example 1-2, 2-chloro-4-{5-cyano-6-[4-(cyclopropylsulfonyl)piperazin-1-yl]pyridin-3-yl}-N,N-dimethylbenzamide], in experiment [1], the maximal response (Emax) came to 68% and the EC50 worked out at 543 nM. For the same compound, in experiment [2], the Emax is 37% and the EC50 came out at 22500 nM.
For `CN(C)C(=O)c1ccc(-c2ccc(N3CCN(C(=O)OC(C)(C)C)CC3)cc2)cc1Cl` [Example 4-11, tert-butyl 4-[3′-chloro-4′-(dimethylcarbamoyl)biphenyl-4-yl]piperazine-1-carboxylate] the same measures were 82%, 238 nM, 55% and 5470 nM.

(Values after patent publication US10239849B2 (Merck Sharp & Dohme Corp., priority 2015, dated 2019).)
